Patent EP4732839A1, “USE OF COMPOUND IN TREATMENT OF LIVER DISEASES” (priority 2023, dated 2025)
Converted amounts (≈) assume the structure as drawn.

Key:
[1] = system: IFN-α, IP-10, IL-6, and TNF-α; experiment: Liver safety: cytokine ELISA in liver tissue; format: in vivo, C57BL/6J wild-type female mice
Procedure: (§1) C57BL/6J wild-type female mice (6 weeks old) were randomly grouped. After administration at different doses, whole blood and liver tissues of the mice were separately collected at 1 h, 2 h, and 4 h for detection of a plurality of parameters to evaluate the effect of the drugs on the liver.
(§2) Liver tissues and blood were collected at 1 h, 2 h, and 4 h after single dosing.
(§3) The supernatant was collected and stored (-20 °C); • (3) IFN-α, IP-10, IL-6, and TNF-α were detected using an ELISA kit. • (C) Remaining liver tissue-HE staining and pathological evaluation. • (D) 1/2 blood (whole blood)-liver function parameter detection: AST (aspartate aminotransferase), ALT (alanine aminotransferase/glutamate pyruvate transaminase), ALP (alkaline phosphatase), ALB (albumin), and GGT (γ-glutamyl transferase). • (E) 1/2 blood-serum preparation-reserve for ELISA.

[2] = system: ISG15, ISG56, Mx1, and Oaslb; experiment: Liver safety: qPCR of interferon-related genes in liver tissue; format: in vivo, C57BL/6J wild-type female mice
Procedure: as §1, §2, §3

[3] = 3/10/20 mpk i.g., livers collected 1 h, 2 h, 4 h post-dose
Procedure: as §1, §2, §3

[4] = system: hepatitis B virus (HBV); experiment: Anti-hepatitis B virus activity in HBV-infected primary human hepatocytes; format: cell-based, HBV type B; conditions: HBV-infected PHHs
Procedure: The culture supernatant from one donor (donor 1) was selected to stimulate HBV-infected primary hepatocytes (PHHs), and interferon α and nucleoside analog entecavir (ETV) were selected as positive controls. The experimental procedures were as follows (FIG. 14a), and the detailed procedures were as follows: On day -1, cryopreserved PHHs were thawed and adjusted to a density of 6 × 10^5 cells/mL, and the PHHs were seeded into a 48-well plate at 0.22 mL/well.
On day 0, the PHHs were infected with HBV type B at 600 GE/cells.
On day 1, the culture medium was replaced with a fresh one, and reference compounds ETV and Peg-IFN-α2a (Pegasys-Roche) were added to the cells to treat the cells. The reference compounds ETV and Peg-IFN-α2a for the PHHs were each prepared at one concentration, with three replicate wells.
The PBMC supernatants were each prepared at 4 test concentrations, diluted at a ratio of 1:4, and then added to the cells. Three replicate wells were made for each test condition. The culture medium was replaced with a fresh culture medium containing the PBMC supernatants and the reference compounds on days 5, 7, 9, and 11. On day 13, the cell supernatants were collected and the cell viability was detected using CCK-8.
The content of HBV DNA in the supernatants was determined by qPCR according to the kit instructions. HBsAg and HBeAg levels in the supernatants were determined by ELISA.

[5] = physchem; conditions: phosphate buffer, pH 7.4, aqueous buffer
[6] = in vitro; conditions: human, microsomes, pH 7.4
Procedure: The metabolic stability of the compounds in in vitro liver microsomes was evaluated. The procedures and steps were as follows: At 37 °C, 1 µM of the compounds was incubated in 1 mg/mL liver microsomes. The reaction system was a 0.1 M potassium phosphate buffer (pH 7.4) containing 3 mmol/L MgCl2 and 1 mmol/L NADPH. At the beginning of the reaction, the small molecules and the liver microsomes were pre-incubated at 37 °C for 10 min, and subsequently a cofactor NADPH was added to initiate the metabolic reaction. The reaction was quenched at 0 min, 5 min, 10 min, 20 min, 30 min, and 60 min using three volumes of ice-cold methanol containing an internal standard (200 nM labetalol). After incubation at room temperature for 10 min, the samples were centrifuged at 4000 rpm at 4 °C for 20 min, and the supernatants were collected, diluted with chromatography-grade purified water in a 1:1 ratio, and then subjected to quantitative analysis. […] After a 6-minute chromatographic separation on a C18 column (50 × 2.1 mm; 2.6 µm) under a gradient mobile phase of 0.1% formic acid in water, the peaks corresponding to specified ionic signals were detected. […] The detailed operation process was as follows: • 1) The compound working solution was added to all 96-well reaction plates (T0, T5, T10, T20, T30, and T60) at 10 µL/well, except the blank wells. • 2) The microsomal solution was added to all the reaction wells (T0, T5, T10, T20, T30, T60, and blank wells) at 80 µL/well. • 3) The plates were pre-incubated at 37 °C for 10 min. • 4) After pre-incubation, NADPH was added to each reaction plate at 10 µL/well to initiate the reaction. • 5) At the set end time point, a 4 °C methanol solution (containing an internal standard: 200 nM labetalol) was added to each reaction plate at 300 µL/well to quench the reaction. • 6) Each plate was sealed and shaken for 10 min. • 7) The mixture was shaken well and centrifuged at 4000 rpm at 4 °C for 20 min. • 8) 300 µL of the supernatant was collected, and HPLC-grade water was added at 300 µL/well. The mixture was well mixed and then subjected to LC-MS analysis.
The metabolic half-life (T1/2) and the metabolic clearance rate (CLint(mic)) (µL/min/mg) were calculated using a first-order kinetic equation.

[7] = system: Peripheral blood mononuclear cells (hPBMCs); experiment: Cytokine secretion after stimulation of PBMCs; conditions: hPBMCs from 3 donors, 24 h of stimulation

COCCNc1nc(N)nc2ccc(Cc3ccc(CN4CCOCC4)cc3)nc12 [Compound II]
expression levels of IL-6, TNF-α, IFN-α, and IP-10 ([1]; 3/10/20 mpk groups i.g. single dose, 1 h, 2 h, 4 h): all peaked at 2 h, and decreased at 4 h
IP-10 (CXCL-10) secretion ([1]; i.g. single dose): significantly induced
relative expression levels of ISG15, ISG56, Mx1, and oas1b ([2]; 3/10/20 mpk i.g. single dose, 1 h to 4 h): increased over time, and peaked at 4 h
mRNA expression level of interferon-related genes ([2]; dose of 3 mpk (pharmacodynamic dose)): significantly induced an increase
Liver HE staining [3]: did not cause apparent pathological damage to the liver tissues
activity for inhibiting HBV DNA compared with Peg-IFN-α2a (100 IU/mL) ([4]; PBMC supernatant (donor 1)): comparable
activity for reducing hepatitis B surface antigen compared with Peg-IFN-α2a (100 IU/mL) ([4]; PBMC supernatant (donor 1)): slightly stronger
anti-HBV activity compared with GS-9688 ([4]; PBMC supernatant (donor 1)): significantly stronger
levels of surface antigens HBeAg and HBsAg ([4]; agonist-treated PBMC supernatant (donor 1) or reference compound, supernatant ELISA day 13): significantly reduced
level of HBV DNA ([4]; agonist-treated PBMC supernatant (donor 1) or reference compound, supernatant qPCR day 13): significantly reduced
solubility [5]: 1010 µM (≈ 413 µg/mL)
half-life at 1 µM [6]: 35.1 min
microsomal CLint at 1 µM [6]: 39.5 µL/min/mg
IFN-α stimulating activity [7]: strong
IFN-α, IFN-γ, and IL-1240 secretion ([7]; 4 concentrations, compared with GS-9688): significantly stronger activity and magnitude
